Reference: patent publication US9861689B2, “Vaccination with immuno-isolated cells producing an immunomodulator” (MaxiVAX SA, priority 2015, dated 2018)
pEC50, pIC50: −log10 of the molar value.

What was measured:
[1] = system: STAT5 A/B [pTyr694/699]; details: STAT5 TF-1 cell line, activator mode; representative value; cited from earlier work
[2] = system: STAT5 A/B [pTyr694/699]; test: LanthaScreen STAT5 TF-1 Activator Screen, GM-CSF Stimulation; format: cell-based; details: cell supernatant
Experimental: A functional cell-based assay was performed in order to determine the biological activity of the GM-CSF produced by the MVX-1 cell line. Two samples of the cell supernatant containing the produced GM-CSF were tested in duplicate using the LanthaScreen™ Cellular Assay (ThermoFisher Scientific), which uses time-resolved resonance energy transfer (TR-FRET) between a terbium-labeled phosphorylation-site specific antibody (PSSA) and a green fluorescent protein (GFP fusion of a particular kinase substrate to provide an assay readout that is ratiometric, robust, and amenable to high-throughput screening (HTS) applications. The use of a GFP fusion of the target along with a single detection antibody simplifies the assay protocol, eliminates the need for beads or additional reagents, and simplifies the assay relative to other two-antibody “sandwich” approaches.
1. 32 μL of cells diluted in Assay Media to appropriate cell density are added to the assay plate. […]
4. The assay plate is incubated at 37° C./5% CO2 in a humidified incubator for a pre-determined length of time (cell line/assay specific).
5. Cells are lysed by the addition of lysis buffer with a pre-determined concentration of Tb-labeled Ab (assay specific).
6. The assay plates are incubated in the dark at room temperature for a pre-determined length of time (assay specific).
7. Read plate on a fluorescence plate reader. […]

[3] = system: STAT5 A/B [pTyr694/699]; details: STAT5 TF-1 cell line, inhibitor mode, GM-CSF stimulation; representative value; cited from earlier work

granulocyte macrophage-colony stimulating factor [GM-CSF]
pEC50 [1]: 11.52

GM-CSF produced by the MVX-1 cell line: huGM-CSF in cell supernatant of the genetically modified MVX-1 cell line
results of the functional cell-based assay ([2]; two samples in duplicate (FIGS. 7A-D)): all positive | biological activity compared with commercially available GM-CSF ([2]; two samples in duplicate, within the limitations of the assay): equivalent to commercially available GM-CSF

JAK Inhibitor I
pIC50 [3]: 7.43
